The NIST ThermoML archive (doi:10.1016/j.jct.2009.05.004)

Test: mn = molality of the nth substance listed, in mol/kg
Settings: Liquid, Vibrating tube method

[Br-].[Br-].[Zn+2] [zinc bromide] + CCO
Settings | mass density [kg/m3]
293.13 K, 1123 kPa, m1 = 0.4384 | 858.07
293.13 K, 1223 kPa, m1 = 0.9305 | 929.75
293.13 K, 5128 kPa, m1 = 0.4384 | 861.43
293.13 K, 9704 kPa, m1 = 0.4384 | 865.15
293.13 K, 9924 kPa, m1 = 0.9305 | 937.03
293.14 K, 1141 kPa, m1 = 1.887 | 1060.17
293.14 K, 4877 kPa, m1 = 0.9305 | 932.86
293.14 K, 5033 kPa, m1 = 1.887 | 1063.5
293.14 K, 5064 kPa, m1 = 0.3043 | 841.35
293.14 K, 9847 kPa, m1 = 1.887 | 1067.49
293.14 K, 10023 kPa, m1 = 0.05681 | 807.27
293.14 K, 14682 kPa, m1 = 0.4384 | 869.05
293.14 K, 14840 kPa, m1 = 0.9305 | 940.94
293.14 K, 14855 kPa, m1 = 1.887 | 1071.5
293.14 K, 20011 kPa, m1 = 0.9305 | 944.89
293.14 K, 30124 kPa, m1 = 0.3043 | 860.11
293.14 K, 34814 kPa, m1 = 0.9305 | 955.31
293.14 K, 39888 kPa, m1 = 0.9305 | 958.57
293.14 K, 39952 kPa, m1 = 0.05681 | 828.27
293.15 K, 1045 kPa, m1 = 0.3043 | 838
293.15 K, 1235 kPa, m1 = 0.05681 | 800.05
293.15 K, 1523 kPa, m1 = 1.49 | 1007.63
293.15 K, 5024 kPa, m1 = 0.05681 | 803.22
293.15 K, 5032 kPa, m1 = 1.49 | 1010.62
293.15 K, 10123 kPa, m1 = 0.3043 | 845.43
293.15 K, 10214 kPa, m1 = 1.49 | 1014.92
293.15 K, 15624 kPa, m1 = 0.05681 | 811.63
293.15 K, 15624 kPa, m1 = 1.49 | 1019.23
293.15 K, 19877 kPa, m1 = 0.4384 | 872.96
293.15 K, 19914 kPa, m1 = 1.887 | 1075.41
293.15 K, 20035 kPa, m1 = 1.49 | 1022.63
293.15 K, 20124 kPa, m1 = 0.3043 | 853.06
293.15 K, 24809 kPa, m1 = 0.4384 | 876.51
293.15 K, 25007 kPa, m1 = 0.9305 | 948.56
293.15 K, 25014 kPa, m1 = 1.49 | 1026.32
293.15 K, 25232 kPa, m1 = 1.887 | 1079.35
293.15 K, 25412 kPa, m1 = 0.05681 | 818.77
293.15 K, 29867 kPa, m1 = 0.4384 | 880
293.15 K, 29915 kPa, m1 = 0.9305 | 952.01
293.15 K, 29924 kPa, m1 = 1.49 | 1029.82
293.15 K, 29995 kPa, m1 = 1.887 | 1082.75
293.15 K, 34624 kPa, m1 = 1.49 | 1033.04
293.15 K, 34775 kPa, m1 = 0.4384 | 883.24
293.15 K, 35015 kPa, m1 = 0.05681 | 825.19
293.15 K, 35078 kPa, m1 = 1.887 | 1086.23
293.15 K, 35624 kPa, m1 = 0.3043 | 863.74
293.15 K, 39932 kPa, m1 = 1.49 | 1036.53
293.16 K, 1293 kPa, m1 = 0.1696 | 817.98
293.16 K, 5239 kPa, m1 = 0.1696 | 821.27
293.16 K, 9897 kPa, m1 = 0.1696 | 825.03
293.16 K, 14684 kPa, m1 = 0.1696 | 828.75
293.16 K, 15201 kPa, m1 = 0.3043 | 849.37
293.16 K, 19951 kPa, m1 = 0.1696 | 832.68
293.16 K, 20035 kPa, m1 = 0.05681 | 814.92
293.16 K, 30348 kPa, m1 = 0.1696 | 839.91
293.16 K, 35296 kPa, m1 = 0.1696 | 843.12
293.16 K, 39385 kPa, m1 = 0.4384 | 886.15
293.16 K, 39747 kPa, m1 = 1.887 | 1089.29
293.16 K, 39967 kPa, m1 = 0.1696 | 846
293.16 K, 39985 kPa, m1 = 0.3043 | 866.49
293.17 K, 24971 kPa, m1 = 0.1696 | 836.26
293.17 K, 25845 kPa, m1 = 0.3043 | 857.16
293.17 K, 30025 kPa, m1 = 0.05681 | 821.93
298.14 K, 5021 kPa, m1 = 0.9305 | 928.53
298.14 K, 5024 kPa, m1 = 0.4384 | 857.08
298.14 K, 5036 kPa, m1 = 0.05681 | 799.14
298.14 K, 5036 kPa, m1 = 0.1696 | 816.98
298.14 K, 15024 kPa, m1 = 1.887 | 1066.84
298.14 K, 15106 kPa, m1 = 0.4384 | 865.31
298.14 K, 20014 kPa, m1 = 0.3043 | 849.06
298.14 K, 25032 kPa, m1 = 0.9305 | 944.53
298.14 K, 25035 kPa, m1 = 0.4384 | 872.78
298.14 K, 35024 kPa, m1 = 0.05681 | 821.61
298.14 K, 39921 kPa, m1 = 0.05681 | 824.72
298.15 K, 1024 kPa, m1 = 0.9305 | 925.02
298.15 K, 1024 kPa, m1 = 1.887 | 1055.01
298.15 K, 1025 kPa, m1 = 0.4384 | 853.63
298.15 K, 1201 kPa, m1 = 0.1696 | 813.7
298.15 K, 1324 kPa, m1 = 0.05681 | 795.94
298.15 K, 1324 kPa, m1 = 1.49 | 1002.7
298.15 K, 1542 kPa, m1 = 0.3043 | 834.12
298.15 K, 5214 kPa, m1 = 1.49 | 1006.13
298.15 K, 10024 kPa, m1 = 0.4384 | 861.25
298.15 K, 10025 kPa, m1 = 0.05681 | 803.29
298.15 K, 10025 kPa, m1 = 0.1696 | 821.11
298.15 K, 10025 kPa, m1 = 0.3043 | 841.24
298.15 K, 10032 kPa, m1 = 0.9305 | 932.79
298.15 K, 10035 kPa, m1 = 1.49 | 1010.24
298.15 K, 10035 kPa, m1 = 1.887 | 1062.75
298.15 K, 15621 kPa, m1 = 1.49 | 1014.82
298.15 K, 19956 kPa, m1 = 0.05681 | 811.06
298.15 K, 20004 kPa, m1 = 0.9305 | 940.76
298.15 K, 20014 kPa, m1 = 0.1696 | 828.87
298.15 K, 20031 kPa, m1 = 1.887 | 1070.82
298.15 K, 20035 kPa, m1 = 1.49 | 1018.3
298.15 K, 25621 kPa, m1 = 0.3043 | 853.17
298.15 K, 25621 kPa, m1 = 1.49 | 1022.52
298.15 K, 29914 kPa, m1 = 0.05681 | 818.2
298.15 K, 29942 kPa, m1 = 1.887 | 1078.29
298.15 K, 29954 kPa, m1 = 1.49 | 1025.66
298.15 K, 29986 kPa, m1 = 0.1696 | 835.96
298.15 K, 30041 kPa, m1 = 0.4384 | 876.29
298.15 K, 30065 kPa, m1 = 0.9305 | 948.14
298.15 K, 34625 kPa, m1 = 1.49 | 1028.92
298.15 K, 34985 kPa, m1 = 0.3043 | 859.62
298.15 K, 35104 kPa, m1 = 0.4384 | 879.69
298.15 K, 39924 kPa, m1 = 1.49 | 1032.44
298.15 K, 39974 kPa, m1 = 1.887 | 1085.32
298.15 K, 39985 kPa, m1 = 0.4384 | 882.8
298.15 K, 39985 kPa, m1 = 0.9305 | 954.77
